Measurements published in paper PMC6630832, “3-Vinylazetidin-2-Ones: Synthesis, Antiproliferative and Tubulin Destabilizing Activity in MCF-7 and MDA-MB-231 Breast Cancer Cells” (Pharmaceuticals, 2019).
Read-outs that look alike come from different tables or passages of the source.

Experiments:
[1] = system: human MCF-7 breast cancer cells; test: Cell viability (Alamar Blue) antiproliferative assay in MCF-7 cells; assay type: cell-based
Procedure: The human breast carcinoma cell line MCF-7, was purchased from the European Collection of Animal Cell Cultures (ECACC) and was cultured in Eagle’s minimum essential medium with 10% fetal bovine serum, 2 mM L-glutamine and 100 μg/mL penicillin/streptomycin. The medium was supplemented with 1% non-essential amino acids. The human breast carcinoma cell line MDA-MB-231 was purchased from the European Collection of Animal Cell Cultures (ECACC). MDA-MB-231 cells were maintained in Dulbecco’s modified Eagle’s medium (DMEM) supplemeted with 10% (v/v) fetal bovine serum, 2 mM L-glutamine and 100 μg/mL penicillin/streptomycin (complete medium). All media contained 100 U/mL penicillin and 100 μg/mL streptomycin. Triple negative breast cancer Hs578T cells and its invasive variant Hs578Ts(i)8 were obtained as a kind gift from Dr. Susan McDonnell, School of Chemical and Bioprocess Engineering, University College Dublin and were cultured in Dulbecco’s Modified Eagle’s Media (DMEM) with GlutaMAX^TM-I, with the same supplement as for MDA-MB-231 cells in the absence of non-essential amino acids. HEK-293T normal epithelial embryonic kidney cells were cultured in Dulbecco’s Modified Eagle’s Medium (DMEM) with GlutaMAX^TM-I in the absence of non-essential amino acids. K562 and HL-60 cells were originally obtained from the European Collection of Cell Cultures (Salisbury, UK).The K562 cells were derived from a patient in the blast crisis stage of CML HL-60 cells were derive from a patient with acute myeloid leukaemia. Cells were cultured in RPMI-1640 Glutamax medium supplemented with 10% FCS media, and 100 μg/mL penicillin/streptomycin. Cells were maintained at 37 °C in 5% CO2 in a humidified incubator. All cells were sub-cultured three times/week (adherent cells by trypsinisation).
Cells were seeded at a density of 5 × 10^3 cells/well (MCF-7), in triplicate in 96-well plates. After 24 h, cells were then treated with either medium alone, vehicle [1% ethanol (v/v)] or with serial dilutions of CA-4 or β-lactam analogue. Cell viability for MCF-7 and MDA-MB-231 was analysed using the Alamar Blue assay (Invitrogen Corp, Thermo Fisher Scientific, 168 Third Avenue, Waltham, MA, USA) according to the manufacturer’s instructions. After 72 h, Alamar Blue [10% (v/v)] was added to each well and plates were incubated for 3–5 h at 37 °C in the dark. Fluorescence was read using a 96-well fluorimeter with excitation at 530 nm and emission at 590 nm. Results were expressed as percentage viability relative to vehicle control (100%). Dose response curves were plotted and IC50 values (concentration of drug resulting in 50% reduction in cell survival) were obtained using the commercial software package Prism (GraphPad Software, Inc., 2365 Northside, Suite 560, San Diego, CA, USA). Experiments were performed in triplicate on at least three separate occasions.

NCI 60 cell line panel = test: NCI60 cell line screen (SRB assay), whole panel or sub-panels; assay type: cell-based
From the text: The results are summarized in Tables S3–S5, Supplementary Information.
Table S5: NCI 60 cell line mean screening results for selected compounds NCI Ref. Compound GI50 TGI LC50 […]
a GI50 and LC50 are the mean concentrations required to inhibit the growth and kill 50 % of the cells over the total NCI 60 cell line panel in the assay respectively. […]
over the total NCI 60 cell line panel.

SW-620 = test: NCI60 screen (SRB), Colon Cancer; assay type: cell-based; details: Homo sapiens
U251 = test: NCI60 screen (SRB), CNS Cancer; assay type: cell-based; details: Homo sapiens, U-251
A498 = test: NCI60 screen (SRB), Renal cancer; assay type: cell-based; details: Homo sapiens
SN12C = test: NCI60 screen (SRB), Renal cancer; assay type: cell-based; details: Homo sapiens
MDA-MB-231/ATCC = test: NCI60 screen (SRB), Breast cancer; assay type: cell-based, human; details: for IC50: value from NCI (footnote b)
Plasma stability study = assay type: in vitro ADME, human; parameters: half-life: dose or concentration left out as unconfirmed; details: 37 °C; for remaining after 6 h: human plasma
Procedure: Analytical high-performance liquid chromatography (HPLC) stability studies were performed using a Symmetry® column (C18, 5 µm, 4.6 × 150 mm), a Waters 2487 Dual Wavelength Absorbance detector, a Waters 1525 binary HPLC pump and a Waters 717 plus Autosampler (Waters Corporation, 34 Maple St, Milford, MA, USA). Samples were detected at wavelength of 254 nm. All samples were analysed using acetonitrile (80%) and water (20%) as the mobile phase over 10 min and a flow rate of 1 mL/min. Stock solutions were prepared by dissolving 5 mg of compound 7s, 17b and 17c in 10 mL of mobile phase. Phosphate buffers at the desired pH values (4, 7.4 and 9) were prepared in accordance with the British Pharmacopoeia monograph 2015. 30 µL of stock solution was diluted with 1 mL of appropriate buffer, shaken and injected immediately. Samples were withdrawn and analysed at time intervals of t = 0 min, 5 min, 30 min, 60 min, 90 min, 120 min, 24 h and 48 h. Plasma stability studies: 360 µL stock solution of compounds 7s, 17b and 17c were transferred to buffered plasma (plasma: buffer = 1:9, 4 mL in total) at 37 °C in screw cap container. Immediately a 250 µL aliquot was withdrawn and added to the Eppendorf tube containing 500 µL ZnSO4.7H2O solution (2% w/v ZnSO4 solution in acetonitrile: water, 1:1). The samples were then centrifuged at 10,000 rpm for 3 min and filtered through a 0.2-micron filter and injected according to the HPLC conditions listed above. Further samples were taken in the same manner every 1 h thereafter up to 6 h. A final sample was taken after 24 h. Whole blood stability studies. A 360 µL aliquot of stock solution of compounds 17b and 17c in acetonitrile was added in whole blood (4 mL, treated with 2% sodium citrate) at 37 °C and 300 µL aliquots were withdrawn at approptiate intervals. Samples were transferred to 1.5 mL Eppenddorf tubes containing 1 mL of ZnSO4. 7H2O solution (2% w/v ZnSO4 solution in acetonitrile: water, 1:1), vortexed and then centrifuged for 5 min at 14,000 rpm. The sample filtered through a 0.2-micron filter and injected according to the HPLC conditions listed above.

[2] = Homo sapiens, MCF7, Table S9, MCF-7 IC50 at which the toxicity was estimated, read-out: IC50, MCF-7
[3] = mean over the total NCI 60 cell line panel
[4] = mean over the total NCI 60 cell line panel, read-out: GI50 (mean)
[5] = mean over the total NCI 60 cell line panel, read-out: LC50 (mean)
[6] = over the full 60 cell line panel, read-out: mean GI50
[7] = MCF7, human MCF-7 breast cancer cells, 72 h, mean ± SEM, read-out: Antiproliferative Activity IC50
[8] = Homo sapiens, MCF7, 72 h, human MCF-7 breast cancer cells, 72 h, mean ± SEM, read-out: Antiproliferative Activity IC50
[9] = human, buffered plasma (plasma:buffer 1:9), plasma, read-out: half-life (t½)
[10] = NCI60 Colon Cancer cell line SW-620, read-out: GI50
[11] = NCI60 CNS Cancer cell line U251, read-out: GI50
[12] = NCI60 Renal cancer cell line A498, read-out: GI50
[13] = NCI60 Renal cancer cell line SN12C, read-out: GI50
[14] = Homo sapiens, NCI60 Breast cancer cell line MDA-MB-231/ATCC, read-out: GI50

Row | SMILES | IC50 [1, 2] [nM] | TGI (mean) (NCI 60 cell line panel; [3]) [nM] | GI50 (NCI 60 cell line panel; [4]) [nM] | CC50 (NCI 60 cell line panel; [5]) [nM] | GI50 (NCI 60 cell line panel; [6]) [nM] | IC50 [1, 7] [nM] | GI50 (NCI 60 cell line panel; 60 cell, read-out: GI50 (mean)) [nM] | CC50 (NCI 60 cell line panel; 60 cell, read-out: LC50) [nM] | CC50 (NCI 60 cell line panel; 60 cell, read-out: LC50 (mean)) [nM] | GI50 (NCI 60 cell line panel; 60 cell, read-out: mean GI50) [nM] | GI50 (SW-620; SW-620) [nM] | GI50 (U251) [nM] | GI50 (A498; A498) [nM] | GI50 (MDA-MB-231/ATCC; Homo sapiens, MDA-MB-231) [nM] | IC50 [1, 8] [nM] | GI50 (SW-620; [10]) [nM] | GI50 (U251; [11]) [nM] | GI50 (A498; [12]) [nM] | GI50 (SN12C; [13]) [nM] | GI50 (MDA-MB-231/ATCC; [14]) [nM] | further results
1 | COc1ccc(/C=C\c2cc(OC)c(OC)c(OC)c2)cc1O [CA-4, Combretastatin A-4, reference compound] | 5.2 | 10300 | 99.3 | 85500 | 99 |  |  |  |  |  |  |  |  |  |  |  |  |  |  |  | 
2 | C=CC1C(=O)N(c2cc(OC)c(OC)c(OC)c2)C1c1ccc(OC)cc1 (stereo not shown) [Compound 7h, 4-(4-Methoxyphenyl)-1-(3,4,5-trimethoxyphenyl)-3-vinylazetidin-2-one] |  | 23440 |  |  |  | 20 ± 2.5 | 52.5 | > 100000 | 75900 | 52 | 40.2 | 34.2 | 18.3 | 31.7 |  |  |  |  |  |  | GI50 (SN12C; SN12C): 55.2 nM; IC50 (MDA-MB-231/ATCC; Homo sapiens, MDA-MB-231, read-out: Antiproliferative Activity IC50, MDA-MB-231): 31 nM; IC50 (MDA-MB-231/ATCC; read-out: Antiproliferative Activity IC50, MDA-MB-231): 31.7 nM
3 | C=CC1C(=O)N(c2cc(OC)c(OC)c(OC)c2)C1c1ccc(OC)c(O)c1 (stereo not shown) [Compound 7s, 4-[3-Hydroxy-4-methoxyphenyl]-1-(3,4,5-trimethoxyphenyl)-3-vinylazetidin-2-one] | 1.4 | 5890 |  |  |  |  | 22.9 | > 100000 | 74100 | 23 |  |  |  |  | 8 ± 0.71 | < 10 | 15.6 | < 10 | < 10 | < 10 | half-life at 41.3 µg/mL (Plasma stability study; [9]): > 24 h; GI50 (NCI 60 cell line panel; 60 cell): < 10 nM; IC50 (MDA-MB-231/ATCC; Homo sapiens, MDA-MB-231, read-out: Antiproliferative Activity IC50): 10 nM
4 | C=CC1C(=O)N(c2cc(OC)c(OC)c(OC)c2)C1c1ccc(OC)c(N)c1 (stereo not shown) [Compound 7t, 4-(3-Amino-4-methoxyphenyl)-1-(3,4,5-trimethoxyphenyl)-3-vinylazetidin-2-one] |  | 50120 |  |  |  | 17 ± 1.8 | 47.9 |  | 89100 | 48 | 40.5 | 36.2 | 11 | 41.5 |  |  |  |  |  |  | 
5 | C=CC1C(=O)N(c2cc(OC)c(OC)c(OC)c2)C1c1ccc(OC)c(OP(=O)(O)O)c1 (stereo not shown) [Compound 17b, 2-Methoxy-5-(1-(3,4,5-trimethoxyphenyl)-4-oxo-3-vinylazetidin-2-yl)phenyl dihydrogen phosphate] |  | 36300 | 72.4 | 87100 |  |  |  |  |  |  |  |  |  |  | 27 ± 2 | 55.2 | 34.3 | 21.8 | 146 | 48.6 | remaining after 6 h (Plasma stability study): 94%; half-life (Plasma stability study; [9]): > 24 h; IC50 (MDA-MB-231/ATCC; Homo sapiens, MDA-MB-231, MDA-MB-231, read-out: Antiproliferative Activity IC50): 49 nM; IC50 (MDA-MB-231/ATCC; MDA-MB-231, read-out: Antiproliferative Activity IC50): 48.6 nM
6 | CCC1C(=O)N(c2cc(OC)c(OC)c(OC)c2)C1c1ccc(OC)c(OP(=O)(O)O)c1 (stereo not shown) [Compound 17c, 5-(3-Ethyl-1-(3,4,5-trimethoxyphenyl)-4-oxoazetidin-2-yl)-2-methoxyphenyl dihydrogen phosphate] |  | 43650 | 138 | 85100 | 73 |  |  |  |  |  |  |  |  |  | 21 ± 1.5 | 37.9 | 31.3 | 12.9 | 54.8 | 31 | remaining after 6 h (Plasma stability study): 92%; half-life (Plasma stability study; [9]): > 24 h
